IC50 data for one compound are collected here from paper PMC8457007 (RNA, 2021).

The target in this assay is CPSF73 (Homo sapiens, UniProt Q9UKF6). Description: gel-based end-point fluorescence nuclease assay with reconstituted U7 machinery. The assay is classed as biochemical.

A word on the IC50: it is the concentration needed to halve the response being measured. A low value points to greater potency in that assay. `O=C(O)CCc1cccc2c1B(O)OC2` [AN3661]: half-maximal inhibition (IC50) required 850 nM.
